Where two headings read alike, the source gives them in different places.
Columns and labels:
[1] = test system: Sch10545 Nf2−/− schwannoma cells; experiment: 3-day resazurin cell proliferation assay, Sch10545 schwannoma cells; format: cell-based, mouse; settings: 3-day resazurin proliferation assay, average IC50, read-out: IC50 (nM) Sch10545 Nf2−/− schwannoma cells
Protocol: (§1) The human MPNST cell lines, ST8814, STS26T, S462, T265, and luciferase-expressing ST8814-Luc, the human NF2-deficient meningioma cell line Ben-Men-1, the NJ2 mouse schwannoma cell line Sch10545, and primary human Schwann cells were propagated as previously described. Oblinger et al., Neuro-Oncol., 18:1265-1277 (2016). The Ewing sarcoma cell line A673 and the osteosarcoma cell lines, 143B and MG-63, were grown in Dulbecco's Modified Eagle's (DME) medium (Millipore-Sigma) supplemented with 10% fetal bovine serum (FBS; Atlanta Biological). The silvestrol-sensitive 697 and silvestrol-resistant 697-R pre-B acute lymphoblastic leukemia cells (Gupta et al., AAPS J., 13:357-364 (2011)), the Ewing sarcoma cell line TC32, the osteosarcoma cell lines, Saos2 and OS17, and the rhabdomyosarcoma cell line RD were cultivated in RPMI 1640 medium (Millipore-Sigma) plus 10% FBS.
(§2) Actively-growing cells were seeded in 96-well plates (Sarstedt) at 2,000 cells/well for Ben-Men-1 and RD cells, 30,000 cells/well for 697 and 697-R cells, and 4,000 cells/well for all other cell lines. The following day, cells were treated with various concentrations of each compound or and 0.05% of DMSO as the control for six days for MG-63 cells or three days for all remaining cell lines. Cell proliferation was assessed using resazurin assays and the IC50 value calculated. Cell cycle analysis was performed accordingly. Burns et al., Cancer Res., 73:792-803 (2013).
(§3) To search for compounds with better drug-like properties, the inventors conducted a side-by-side comparison of ten rocaglates lacking the dioxanyl ring with silvestrol for growth-inhibitory activity in a panel of MPNST, schwannoma, and meningioma cell lines, which they had previously shown to be sensitive to the antiproliferative action of silvestrol. […] The average IC50 value of each rocaglate was determined by 3-day resazurin proliferation assays. […] Further structure and activity comparison discerned some positions on the cyclopenta[b]benzofuran scaffold that affected the antiproliferative activity of rocaglates.

[2] = test system: Ben-Men-1 NF2−/− meningioma cells; experiment: 3-day resazurin cell proliferation assay, Ben-Men-1 meningioma cells; format: cell-based, human; settings: 3-day resazurin proliferation assay, average IC50, read-out: IC50 (nM) Ben-Men-1 NF2−/− meningioma cells
Protocol: as §1, §2, §3

[3] = test system: STS26T NF1+/+ MPNST cells; experiment: 3-day resazurin cell proliferation assay, STS26T MPNST cells; format: cell-based, human; settings: 3-day resazurin proliferation assay, average IC50, read-out: IC50 (nM) STS26T NF1+/+ MPNST cells
Protocol: as §1, §2, §3

[4] = test system: ST8814 NF1−/− MPNST cells; experiment: 3-day resazurin cell proliferation assay, ST8814 MPNST cells; format: cell-based, human; settings: 3-day resazurin proliferation assay, average IC50, read-out: IC50 (nM) ST8814 NF1−/− MPNST cells
Protocol: as §1, §2, §3

SMILES	IC50 [1] [nM]	IC50 [2] [nM]	IC50 [3] [nM]	IC50 [4] [nM]	IC50 ([1]; Mus musculus, 72 h) [nM]	IC50 ([2]; Homo sapiens, 72 h) [nM]	IC50 ([3]; Homo sapiens, STS-26T, 72 h) [nM]	IC50 ([4]; Homo sapiens, ST88-14, 72 h) [nM]
COC(=O)C1C(O)C2(OC)c3c(OC)cc(OC)cc3OC2(c2ccc(OC)cc2)C1c1ccccc1 (centres unmarked) [Methyl 8b-O-methylrocaglate]	9300	> 10000	≥ 10000	> 20000	–	–	–	–
COC(=O)C1C(O)C2(O)c3c(OC)cc(OC)cc3OC2(c2ccc3c(c2)OCO3)C1c1ccccc1 (centres unmarked) [Methyl 4′-demethoxy-3′,4′-methylenedioxyrocaglate]	60	80	35	70	–	–	–	–
COc1cc(OC)c2c(c1)OC1(c3ccc4c(c3)OCO4)C(c3ccccc3)CC(O)C21O (centres unmarked) [4′-demethoxy-3′,4′-methylenedioxyrocaglaol]	65	85	55	120	–	–	–	–
COc1ccc([C@@]23Oc4cc(OC)cc(OC)c4[C@]2(O)[C@H](O)C[C@H]3c2ccccc2)cc1 [Rocaglaol]	–	–	–	–	60	100	40	90
COC(=O)C1C(O)C2(OC)c3c(OC)cc(OC)cc3OC2(c2ccc3c(c2)OCO3)C1c1ccccc1 (centres unmarked) [Methyl 8b-O-methyl-4′-demethoxy-3′,4′-methylenedioxyrocaglate]	1900	3800	1300	2000	–	–	–	–
COc1ccc([C@@]23Oc4cc(OC)cc(OC)c4[C@]2(OC)[C@H](O)C[C@H]3c2ccccc2)cc1 [8b-O-methylrocaglaol]	> 20000	> 20000	> 20000	> 20000	–	–	–	–
COc1cc(OC)c2c(c1)OC1(c3ccc4c(c3)OCO4)C(c3ccccc3)CC(O)C21OC (centres unmarked) [8b-O-methyl-4′-demethoxy-3′,4′-methylenedioxyrocaglaol]	> 2500	> 2500	5000	10000	–	–	–	–
COC(=O)[C@H]1[C@@H](O)[C@@]2(O)c3c(OC)cc(OC)cc3O[C@@]2(c2ccc(OC)cc2)[C@@H]1c1ccccc1 [Methyl rocaglate]	50	55	25	35	–	–	–	–

— patent US12403121B2, “Anticancer rocaglamide derivatives” (priority 2018, dated 2025)
